Experimental data published in patent US11897902B1, “Nano-sized mixed ligand [4-bromo-2-(quinolin-2-yliminomethyl)-phenol imine- phenanthroline] Ru(III) complex for medicinal applications” (KING FAISAL UNIVERSITY, priority 2023, dated 2024).
≈ marks a conversion by molar mass, not a printed value. Each block holds one molecule with its values, some of them ahead of it.

Legend:
Assay type in all cases: cell-based
Aspergillus flavus = test: Antifungal activity, well diffusion method (inhibition zone, MIC)
Description: To evaluate antimicrobial activity, the fungal strain (Aspergillus flavus), was used. These strains were cultured in nutrient agar and Muller-Hinton medium. Fluconazole compound was used as a standard drug for comparison.
Antifungal activities of the prepared nano-complex were studied against three fungal cultures using well diffusion method. The tested fungi were inoculated in Sabouraud dextrose broth medium (Hi-Media Mumbai) and incubated at 35° C. for 72 h and subsequently a suspension of about 1.60×10^4-6.00×10^4 c.f.u/ml was introduced agar plates and a sterile glass spreader was used for even distribution of the inoculum. The discs measuring 6 mm in diameter were prepared from Whatman No. 1 filter paper and sterilized by dry heat at 140° C. for 1 h. The sterile discs previously soaked in known concentration of the tested compounds were placed in Sabouraud dextrose Agar (SDA) plates. The plates were inverted and incubated at 35° C. for 7 days. The susceptibility was assessed on the basis of diameter of inhibition against albicans and non-albicans strain of fungi.

Escherichia coli(−ve) = test: Antimicrobial activity, agar well diffusion (inhibition zone, MIC); details: E. coli
Description: To evaluate antimicrobial activity, the bacterial strain Escherichia coli(−ve), was used. These strains were cultured in a nutrient agar and Muller-Hinton medium. Ofloxacin compound was used as a standard drug for comparison.
The susceptibilities of such growth rate of microorganisms were measured in vitro by agar well diffusion method. The tested nano complex was dissolved in dimethyl sulfoxide at different concentrations (10 and 20 mg/ml). 1 cm^3 of a 24 h broth culture containing 10^6 CFU/cm^3 was placed in sterile Petri-dishes. Molten nutrient agar (15 cm 3) maintained at 45° C. was then poured into the Petri-dishes and allowed to solidify. Then holes of 6 mm diameter were formed in the agar using a sterile cork borer and these holes were completely filled with the test solutions. The plates were incubated for 24 h at 37° C. After the incubation period, the zone of inhibition of each well was determined by measuring the zones of growth inhibition (mm) against the test microorganisms with zone reader (Hi Antibiotic zone scale). […] The measurements were made in triplicate for each compound and their average values are reported.

Breast cancer cells line = test: Cytotoxic activity, Sulfo-Rhodamine-B-stain (SRB); details: Homo sapiens, breast cancer cell line, 48 hours
Description: The anticancer activity was made at the National Cancer Institute, Cancer Biology Department, Pharmacology Department, Cairo University. The absorbance or optical density (O.D.) of each well was measured spectrophotometrically at 564 (nm) with an “ELIZA” micro plate reader (Meter tech. Σ960, “USA”). Evaluation of the cytotoxic activity of the prepared nano-complex was carried out against Breast cancer cells line. The evaluation process was carried out in vitro using the Sulfo-Rhodamine-B-stain (SRB). Cells were placed in 96-multiwell plate (10^4 cells/well) for 24 hours before processing with the complexes to allow attachment of cell to the wall of the plate. Various concentrations of the compounds under test in DMSO (0, 1, 2.5, 5 and 10 μM) were added to the cell monolayer. Monolayer cells were incubated with the complexes for 48 hours at 37° C. and in atmosphere of 5% CO2. After 48 hours, cells were fixed, rinsed, and stained with Sulfo-Rhodamine-B-stain. Excess stain was washed with acetic acid and attached stain was treated with Tris EDTA buffer. Color intensity was measured in an ELISA reader. IC50 was evaluated and potency was calculated with regard to percentage of change of (vistabline standard). The relation between surviving fraction and compound concentration is plotted to get the survival curve of each tumor cell line after the specified compound. […]

MIC (Aspergillus flavus): 2 µg/mL (≈ 6.53 µM)
SMILES: OC(Cn1cncn1)(Cn1cncn1)c1ccc(F)cc1F [Fluconazol, Fluconazole]
inhibition zone (Aspergillus flavus; well diffusion, 35° C. for 7 days): 24 mm

MIC (Escherichia coli(−ve); Escherichia coli): 2.5 µg/mL (≈ 6.92 µM)
SMILES: CC1COc2c(N3CCN(C)CC3)c(F)cc3c(=O)c(C(=O)O)cn1c23 (centres unmarked) [Ofloxacin]
inhibition zone (Escherichia coli(−ve); agar well diffusion, 24 h at 37° C.): 35 mm

SMILES: CC[C@]1(O)C[C@@H]2CN(CCc3c([nH]c4ccccc34)[C@@](C(=O)OC)(c3cc4c(cc3OC)N(C)[C@H]3[C@@](O)(C(=O)OC)[C@H](OC(C)=O)[C@]5(CC)C=CCN6CC[C@]43[C@@H]65)C2)C1 [vinblastine]
IC50 (Breast cancer cells line): 4.5 µg/mL (≈ 5.55 µM)
